Reference: patent EP0110570A2, “Triazole antifungal agents” (Pfizer Limited, priority 1982, dated 1984)
Read-outs that look alike come from different tables or passages of the source.

Test system: Candida albicans
Test: In vivo protection of mice inoculated with Candida albicans (PD50)
Conditions: read-out: PD50
Description: The in vivo evaluation of the compounds can be carried out at a series of dose levels by intraperitoneal or intravenous injection or by oral administration, to mice which are inoculated with a strain of Candida albicans. Activity is based on the survival of a treated group of mice after the death of an untreated group of mice following 48 hours observation. The dose level at which the compound provides 50% protection against the lethal effect of the infection (PD50) is noted.
Using the test method described previously in the text, the following PD50 values (mg./kg.) were obtained in mice infected with Candida albicans:-

[1] = mice infected with Candida albicans, dose level giving 50% protection against the lethal effect of the infection, survival after 48 hours observation, route not specified (intraperitoneal, intravenous or oral)

SMILES | ED50 [1] [mg/kg] | ED50 (Candida albicans, 48 h) [mg/kg]
Fc1ccc(C(Cl)(Cn2cncn2)C(F)(F)F)c(F)c1 (centres unmarked) [Example 1, 1-[2-chloro-2-(2,4-difluorophenyl)-3,3,3-trifluoropropyl]-1H-1,2,4-triazole] | 0.15 | 
FC(F)(F)C(Cl)(Cn1cncn1)c1ccc(Cl)cc1 (centres unmarked) [Example 2] | 0.6 | 
Fc1ccc(C(Cl)(Cn2cncn2)C(F)(F)F)cc1 (centres unmarked) [Example 3] | 0.6 | 
Fc1ccc(C(Cl)(Cn2cncn2)C(F)(F)C(F)(F)F)cc1 (centres unmarked) [Example 4] | < 1 | 
Fc1ccc(C(Cl)(Cn2cncn2)C(F)(F)C(F)(F)C(F)(F)F)c(F)c1 (centres unmarked) [Example 5] |  | < 1
